{"source": "paper PMC12423301", "about": "“Astrocytic monoamine oxidase B (MAOB)–gamma-aminobutyric acid (GABA) axis as a molecular brake on repair following spinal cord injury” (Signal Transduction and Targeted Therapy, 2025)", "key": {"[1]": {"experiment": "GLP toxicity tests in rats"}, "APP/PS1 transgenic mice": {"test_system": "APP/PS1 transgenic mice", "experiment": "Cognitive tests in APP/PS1 transgenic mice", "format": "in vivo, mouse"}, "[2]": {"experiment": "Phase 1 clinical trial: pharmacokinetics", "protocol": "All subjects provided consent for this phase 1 clinical trial study. The study comprised 11 cohorts: single ascending dose (SAD) and multiple ascending dose (MAD) studies. […] Cohort 3 employed a two-period crossover design with a 14-day washout.\nThe parameters related to plasma concentrations were calculated via non-compartmental analysis using the linear-up log-down method in Phoenix WinNonlin software version 8.3 (Certara, US). The parameters related to urine concentrations were calculated using the linear trapezoidal linear interpolation method.\nIn the SAD study, plasma samples were collected using sodium K2-EDTA tubes at pre-dose, 0.33, 0.75, 1, 2, 3, 4, 6, 8, 12, 24, 48, 72, 96, 120, and 144 h after dosing. Urine samples were collected up to 72 h post-dose. In the MAD study, plasma samples were collected at pre-dose, 0.33, 0.75, 1, 2, 3, 4, 6, 8, 12 and 24 h after the administration of the first dose, and at pre-dose of the third to seventh doses. After the administration of the seventh dose, plasma samples were collected at the same time points as after the first dose, with additional sampling points at 48, 72, 96, 120, and 144 h post-dose. Urine samples were collected for 24 h after the administration of the first dose and for 72 h after the seventh dose.\nFor the clinical trial, dose proportionality of the PK parameters (Cmax, Cmax,ss, AUClast, and AUCτ) was assessed using power model using the following equation: log (PK parameter) = β0 + β1 log (dose). The regression slope (β1) and the intercept (β0) were estimated with 95% confidence interval (CI) using PROC REG in SAS version 9.4. The PK parameters were considered dose-proportional if the 95% CI of the β1 included 1. […] Using a linear mixed effect model, the logarithmized PK parameters were analyzed with the high-gat meal as a fixed effect and inter-individual differences as a random effect. The GMR and its 90% CI of the PK parameters of the high-fat meal were calculated relative to those in the fasting state. […] In elderly subjects, the same analyses were performed and compared to those of healthy younger adults."}, "[3]": {"experiment": "Preclinical pharmacokinetics in mice", "format": "in vivo, mouse"}, "[4]": {"details": "ICR mouse, 5 mg/kg single intravenous administration"}, "[5]": {"details": "in vivo, APP/PS1 mouse, 1 mg/kg single oral administration"}, "[6]": {"details": "in vivo, APP/PS1 mouse, 10 mg/kg single oral administration"}, "[7]": {"details": "in vivo, ICR mouse, 5 mg/kg single intravenous administration"}, "[8]": {"details": "in vivo, ICR mouse, 5 mg/kg single oral administration"}, "[9]": {"details": "in vivo, ICR mouse, 10 mg/kg single oral administration"}, "[10]": {"details": "in vivo, ICR mouse, 30 mg/kg single oral administration"}}, "note": "Read-outs that look alike come from different tables or passages of the source.", "data": [{"smiles": "CS(=O)(=O)O.C[C@H](NCc1ccc(-c2ccc(C(F)(F)F)cc2)cc1)C(N)=O", "note": "[KDS2010, (S)-2-(((4’-Trifluoromethylbiphenyl-4-yl)methyl)amino)propanamide methane-sulfonate]", "values": [{"measurement": "human equivalent dose (HED) of MTD", "setting": "[1]; from rat MTD", "value": 6774.2, "unit": "mg/60kg"}, {"measurement": "histopathology (kidneys, bladder, testis, epididymis and lungs)", "setting": "[1]; oral 30, 50, 75 and 100 mg/kg once daily for 4 weeks", "value": "histopathological changes"}, {"measurement": "mortality", "setting": "[1]; oral 50-200 mg/kg daily for 2 weeks", "value": "no deaths"}, {"measurement": "passive avoidance test", "setting": "APP/PS1 transgenic mice; 1 mg/kg and 10 mg/kg, repeated administration for 2 weeks, vs APP/PS1 control group", "value": "statistically significant cognitive function improvement effect"}, {"measurement": "Morris water maze test", "setting": "APP/PS1 transgenic mice; 10 mg/kg for 27 to 37 days", "value": "statistically significant improvement"}, {"measurement": "cognitive function", "setting": "APP/PS1 transgenic mice; 4-week repeated dosing test", "value": "statistically significant cognitive function effect"}, {"measurement": "increase of systemic exposure (AUCinf and AUCτ,ss) with dose", "setting": "[2]; 60 mg to 480 mg", "value": "dose-proportional"}, {"measurement": "higher exposure in elderly subjects", "setting": "[2]; 120 mg for 7 days, elderly vs young", "value": "approximately 25%"}, {"measurement": "pharmacokinetic profiles, Korean vs Caucasian subjects", "setting": "[2]; 60, 120, 240, 480 mg at steady state", "value": "similar"}, {"measurement": "unchanged drug excreted in the urine", "setting": "[2]; healthy humans", "value": "Less than 1%"}, {"measurement": "AUC(0-inf)", "setting": "[2]; human, in vivo, 120 mg", "value": 13900, "unit": "ng·h/mL"}, {"measurement": "effect of a high-fat meal on systemic exposure (Cmax and AUCinf)", "setting": "[2]; human, in vivo, 120 mg", "value": "did not affect"}, {"measurement": "half-life", "setting": "[2]; human, in vivo, po", "value": 44.2, "unit": "h"}, {"measurement": "time to maximum plasma concentration (Cmax)", "setting": "[2]; human, in vivo, po", "value": 3, "unit": "h"}, {"measurement": "CL/F", "setting": "[3]; [4]", "value": "28.47 ± 1.37", "unit": "mL/min/kg"}, {"measurement": "Vd/F", "setting": "[3]; [4]", "value": "10.439 ± 0.682", "unit": "L/kg"}, {"measurement": "AUC(0-inf)", "setting": "[3]; [5]", "value": "1130 ± 173", "unit": "ng·h/mL"}, {"measurement": "half-life", "setting": "[3]; [5]", "value": "4.76 ± 0.43", "unit": "h"}, {"measurement": "CL/F", "setting": "[3]; in vivo, APP/PS1 mouse, 1 mg/kg single oral administration, read-out: CL/F (converted)", "value": 15, "unit": "mL/min/kg"}, {"measurement": "Vd/F", "setting": "[3]; in vivo, APP/PS1 mouse, 1 mg/kg single oral administration, read-out: Vd/F", "value": "6.13 ± 0.767", "unit": "L/kg"}, {"measurement": "AUC(0-inf)", "setting": "[3]; [6]", "value": "12900 ± 740", "unit": "ng·h/mL"}, {"measurement": "half-life", "setting": "[3]; [6]", "value": "5.7 ± 0.7", "unit": "h"}, {"measurement": "CL/F", "setting": "[3]; in vivo, APP/PS1 mouse, 10 mg/kg single oral administration, read-out: CL/F (converted)", "value": 14.3, "unit": "mL/min/kg"}, {"measurement": "Vd/F", "setting": "[3]; in vivo, APP/PS1 mouse, 10 mg/kg single oral administration, read-out: Vd/F", "value": "7.01 ± 0.934", "unit": "L/kg"}, {"measurement": "AUC(0-inf)", "setting": "[3]; [7]", "value": "3590 ± 71.7", "unit": "ng·h/mL"}, {"measurement": "half-life", "setting": "[3]; [7]", "value": "4.2 ± 0.2", "unit": "h"}, {"measurement": "AUC(0-inf)", "setting": "[3]; [8]", "value": "4180 ± 100", "unit": "ng·h/mL"}, {"measurement": "half-life", "setting": "[3]; [8]", "value": "4.2 ± 0.1", "unit": "h"}, {"measurement": "CL/F", "setting": "[3]; in vivo, ICR mouse, 5 mg/kg single oral administration, read-out: CL/F (converted)", "value": 18, "unit": "mL/min/kg"}, {"measurement": "Vd/F", "setting": "[3]; in vivo, ICR mouse, 5 mg/kg single oral administration, read-out: Vd/F", "value": "6.6 ± 0.38", "unit": "L/kg"}, {"measurement": "AUC(0-inf)", "setting": "[3]; [9]", "value": "7920 ± 457", "unit": "ng·h/mL"}, {"measurement": "half-life", "setting": "[3]; [9]", "value": "4.4 ± 0.2", "unit": "h"}, {"measurement": "CL/F", "setting": "[3]; in vivo, ICR mouse, 10 mg/kg single oral administration, read-out: CL/F (converted)", "value": 22, "unit": "mL/min/kg"}, {"measurement": "Vd/F", "setting": "[3]; in vivo, ICR mouse, 10 mg/kg single oral administration, read-out: Vd/F", "value": "8.41 ± 0.843", "unit": "L/kg"}, {"measurement": "AUC(0-inf)", "setting": "[3]; [10]", "value": "27100 ± 1090", "unit": "ng·h/mL"}, {"measurement": "half-life", "setting": "[3]; [10]", "value": "4.3 ± 0.4", "unit": "h"}, {"measurement": "CL/F", "setting": "[3]; in vivo, ICR mouse, 30 mg/kg single oral administration, read-out: CL/F (converted)", "value": 14.5, "unit": "mL/min/kg"}, {"measurement": "Vd/F", "setting": "[3]; in vivo, ICR mouse, 30 mg/kg single oral administration, read-out: Vd/F", "value": "5.45 ± 0.512", "unit": "L/kg"}]}]}
